How the values were obtained:
[1] = target: T1, human Adenosine A2a receptor (Homo sapiens, UniProt P29274); experiment: Adenosine receptor TR-FRET binding assay (CA200645 displacement), A2a; conditions: 100 nM CA200645, CHO cell membranes, 2 hours at room temperature
T1 construct: expressed in transfected cells; host or cells: CHO cell membranes

human PBMCs = experiment: CD3/CD28 stimulated IL-2 release NECA reversal assay in human PBMCs; assay type: cell-based; conditions: PBMC, CD3/CD28 antibody stimulated, 1 uM NECA, 24 hours, IL-2 in culture supernatant;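 also: dose-response as % inhibition where 100% equals no-NECA control wells with CD3/CD28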
Method: Blood is drawn from healthy volunteers using sodium citrate as the anticoagulant (0.3% final concentration). After centrifugation of the blood over Histopaque-1077, PBMCs are collected from the Histopaque/plasma interface and washed twice in PBS (300 g for 10 mins at room temp). Cells are plated at 50,000 cells/well in 150 μl RPMI/10% FCS in 96-well cell culture plates that have been precoated with 1 ug/ml CD3 antibody. 50 μl diluted compound mix is added to the cells, to obtain final concentrations of 1 ug/ml CD28 antibody, 1 uM NECA and 0.003-10 μM adenosine receptor antagonist. Assay plates are incubated for 24 hours at 37° C. in a humidified incubator. Culture supernatant is tested for IL-2 levels using the human IL-2 Tissue Culture Kit (Meso Scale Discovery).

[2] = target: T2, human Adenosine A2b receptor (Homo sapiens, UniProt P29275); experiment: Adenosine receptor TR-FRET binding assay (CA200645 displacement), A2b; conditions: 30 nM CA200645, CHO cell membranes, 2 hours at room temperature
T2 construct: expressed in transfected cells; host or cells: CHO cell membranes
T2 sequence (P29275 1-332): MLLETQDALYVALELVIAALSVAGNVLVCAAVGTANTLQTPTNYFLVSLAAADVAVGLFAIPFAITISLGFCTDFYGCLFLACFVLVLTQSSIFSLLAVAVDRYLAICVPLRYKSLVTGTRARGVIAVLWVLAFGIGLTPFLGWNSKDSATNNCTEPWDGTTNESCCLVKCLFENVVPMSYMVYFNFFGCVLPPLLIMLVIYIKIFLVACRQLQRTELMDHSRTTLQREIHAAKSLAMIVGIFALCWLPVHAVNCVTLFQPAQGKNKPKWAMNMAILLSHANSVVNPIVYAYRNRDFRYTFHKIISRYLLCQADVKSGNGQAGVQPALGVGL

[3] = target: T3, human Adenosine A3 receptor (Homo sapiens, UniProt P0DMS8); experiment: Adenosine receptor TR-FRET binding assay (CA200645 displacement), A3
T3 sequence (P0DMS8 1-318): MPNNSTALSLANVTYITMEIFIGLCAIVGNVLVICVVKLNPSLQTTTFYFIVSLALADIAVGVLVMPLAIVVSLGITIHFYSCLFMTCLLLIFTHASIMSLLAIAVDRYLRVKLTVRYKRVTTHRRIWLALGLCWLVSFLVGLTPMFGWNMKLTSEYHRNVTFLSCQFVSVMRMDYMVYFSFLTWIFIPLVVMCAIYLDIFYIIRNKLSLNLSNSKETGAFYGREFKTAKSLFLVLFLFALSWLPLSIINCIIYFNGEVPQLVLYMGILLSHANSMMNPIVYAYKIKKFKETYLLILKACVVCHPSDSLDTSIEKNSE

[4] = test system: CD8+ T cells in human whole blood; experiment: Measurement of pCREB in CD8+ T cells in human whole blood; assay type: cell-based; conditions: T-cell, 1 h; heparinised human whole blood, rolipram, 3 μM NECA, 60 min, phospho-CREB in CD8+ T cells by FACS
Method: Heparinised human whole blood was pre-incubated at 37° C. with serial dilutions of A2a antagonists for 20 min. and the phosphodiesterase inhibitor rolipram to amplify the pCREB response. The adenosine receptor agonist NECA is then added at a final concentration of 3 μM and following a 60 min incubation the blood is fixed and red blood cells lysed. White blood cells are isolated, permeabilized and stained with directly conjugated fluorescent antibodies to phospho-CREB (Alexa Fluor 488) and CD8 (Alexa Fluor 647) and the level of phospho-CREB in CD8+ T cells is measured by FACS using a BD Accuri C6 Flow Cytometer.

[5] = target: T4, human Adenosine A1 receptor (Homo sapiens, UniProt P30542); experiment: Adenosine receptor TR-FRET binding assay (CA200645 displacement), A1
T4 sequence (P30542 1-326): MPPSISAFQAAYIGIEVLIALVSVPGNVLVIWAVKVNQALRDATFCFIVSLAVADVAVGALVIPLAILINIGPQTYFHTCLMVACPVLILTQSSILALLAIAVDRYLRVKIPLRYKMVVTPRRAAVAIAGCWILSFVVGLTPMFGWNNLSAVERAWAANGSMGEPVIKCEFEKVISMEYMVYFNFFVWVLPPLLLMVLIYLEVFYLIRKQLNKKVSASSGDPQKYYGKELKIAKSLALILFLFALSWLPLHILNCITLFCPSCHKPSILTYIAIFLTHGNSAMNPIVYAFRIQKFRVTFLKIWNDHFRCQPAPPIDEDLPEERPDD

T1 sequence (P29274 whole entry): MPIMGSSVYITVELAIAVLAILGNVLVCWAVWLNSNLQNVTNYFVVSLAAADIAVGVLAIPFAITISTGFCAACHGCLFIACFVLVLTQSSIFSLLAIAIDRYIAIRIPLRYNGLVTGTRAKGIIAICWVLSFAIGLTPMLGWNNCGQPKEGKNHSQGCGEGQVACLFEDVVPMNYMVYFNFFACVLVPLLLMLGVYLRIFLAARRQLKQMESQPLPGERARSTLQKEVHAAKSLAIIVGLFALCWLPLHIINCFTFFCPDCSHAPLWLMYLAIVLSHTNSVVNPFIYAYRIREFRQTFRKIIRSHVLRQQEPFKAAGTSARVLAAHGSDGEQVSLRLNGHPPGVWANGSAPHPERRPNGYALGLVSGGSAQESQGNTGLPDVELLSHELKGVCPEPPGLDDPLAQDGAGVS

Row | Ki [1] [µM] | Ki [2] [µM] | Ki [3] [µM] | IC50 [4] [µM] | Ki [5] [µM] | SMILES | IC50 (human PBMCs) [µM]
1 | 0.0092 | 0.043 | > 1 | 0.74 | 0.062 | Cc1cc(-c2c(-c3cccc(C#N)c3)nn3ccc(N)nc23)cc(N)n1 [Example 27.1, 3-[5-Amino-3-(2-amino-6-methyl-4-pyridyl)pyrazolo[1,5-a]pyrimidin-2-yl]benzonitrile] | 0.036
2 | 0.0015 | 0.034 | > 1 | 1.33 | 0.176 | Cc1cc(-c2c(-c3cccc(C#N)c3)nn3ccc(NC4CCN(S(C)(=O)=O)CC4)nc23)cc(Cl)n1 [Example 2.11] | 0.005
3 | 0.0003 | 0.002 | > 1 | 0.21 | – | Cc1cc(-c2c(-c3cccc(C#N)c3)nn3ccc(N[C@H](C)CO)nc23)cc(Cl)n1 [Example 3.3] | 0.001
4 | 0.0241 | 2.55 | 2.12 | – | 0.125 | Cc1cccnc1CN1CCN(c2ccn3nc(-c4ccco4)c(C#N)c3n2)CC1 [Example 51, 2-(2-Furyl)-5-[4-[(3-methyl-2-pyridyl)methyl]piperazin-1-yl]pyrazolo[1,5-a]pyrimidine-3-carbonitrile] | 0.073
5 | 0.0034 | 2.85 | 0.025 | – | 0.141 | Brc1c(-c2ccco2)nn2ccc(NCc3ccccc3)nc12 [Example 44, N-Benzyl-3-bromo-2-(2-furyl)pyrazolo[1,5-a]pyrimidin-5-amine] | 0.501
6 | 0.0004 | 0.01 | > 1 | 0.06 | 0.079 | Cc1cc(-c2c(-c3cccc(C#N)c3)nn3ccc(C(=O)NCC4CCCN(C)C4=O)nc23)cc(C)n1 (centres unmarked) [Example 92.14] | –
7 | 0.0015 | 0.021 | > 1 | 2.1 | 0.217 | Cc1cc(-c2c(-c3cccc(C#N)c3)nn3ccc(C(=O)NOCC(C)(C)O)nc23)cc(C)n1 [Example 92.11] | –
8 | 0.0007 | 0.017 | > 1 | 0.11 | 0.288 | Cc1cc(-c2c(-c3cccc(C#N)c3)nn3ccc(C(=O)NCC4(C)COC(=O)N4)nc23)cc(C)n1 (centres unmarked) [Example 92.21] | –
9 | 0.0133 | 0.046 | 2.09 | – | 0.045 | CC(C)(C)OC(=O)N1CCO[C@@H](CNc2ccn3nc(-c4ccco4)c(C#N)c3n2)C1 [Example 37.1] | 0.477
10 | 0.0052 | 0.483 | 0.51 | – | 0.174 | O=Cc1c(-c2ccco2)nn2ccc(NCc3ccccc3)nc12 [Example 47, 5-(Benzylamino)-2-(2-furyl)pyrazolo[1,5-a]pyrimidine-3-carbaldehyde] | 0.14
11 | 0.0005 | 0.117 | > 1 | 0.15 | 0.591 | Cc1cc(-c2c(-c3cccc(C#N)c3)nn3ccc(C(=O)N[C@H](C)C(C)(C)O)nc23)cc(C)n1 [Example 92.10] | –
12 | 0.0447 | 0.384 | > 1 | – | 0.059 | Fc1cccc(-c2cc3nc(NCc4ccccc4)ccn3n2)c1 [Example 66, N-benzyl-2-(3-fluorophenyl)pyrazolo[1,5-a]pyrimidin-5-amine] | 0.869
13 | 0.0008 | 0.044 | > 1 | 0.15 | 0.274 | Cc1cc(-c2c(-c3cccc(C#N)c3)nn3ccc(C(=O)N[C@@H]4COC[C@]4(C)O)nc23)cc(C)n1 [Example 92.12] | –
14 | 0.0069 | 0.058 | – | 2.76 | 0.255 | Cc1cc(-c2c(-c3cccc(C#N)c3)nn3ccc(N4CCO[C@@H](C(=O)O)C4)nc23)cc(Cl)n1 [Example 2.24] | 0.092
15 | 0.0006 | 0.029 | > 1 | 0.37 | 0.204 | Cc1cc(-c2c(-c3cccc(C#N)c3)nn3ccc(C(=O)N[C@H]4CC[C@](C)(O)CC4)nc23)cc(C)n1 [Example 92.22] | –
16 | 0.001 | 0.101 | > 1 | 0.1 | 0.282 | Cc1cc(-c2c(-c3cccc(C#N)c3)nn3ccc(C(=O)N[C@@H]4COC[C@@]4(C)O)nc23)cc(C)n1 [Example 92.13] | –
17 | 0.0027 | 0.257 | 1.27 | – | 0.146 | NC(=O)c1c(-c2ccco2)nn2ccc(NCc3ccccc3)nc12 [Example 46, 5-(Benzylamino)-2-(2-furyl)pyrazolo[1,5-a]pyrimidine-3-carboxamide] | 0.06
18 | 0.0075 | 0.508 | 0.041 | – | 0.016 | Cc1ccc(-c2nn3ccc(NCc4ccccc4)nc3c2C#N)o1 [Example 64, 5-(benzylamino)-2-(5-methyl-2-furyl)pyrazolo[1,5-a]pyrimidine-3-carbonitrile] | 0.146
19 | 0.0001 | 0.003 | 0.379 | 0.02 | 0.032 | COCC(C)(C#N)NC(=O)c1ccn2nc(-c3cccc(C#N)c3)c(-c3cc(C)nc(Cl)c3)c2n1 (centres unmarked) [Example 6.11, 3-(2-Chloro-6-methyl-4-pyridyl)-N-(1-cyano-2-methoxy-1-methyl-ethyl)-2-(3-cyanophenyl)pyrazolo[1,5-a]pyrimidine-5-carboxamide] | –
20 | 0.0309 | 0.116 | 0.092 | – | 0.0003 | N#Cc1c(-c2cccc(F)c2)nn2ccc(N)nc12 [Example 72, 5-Amino-2-(3-fluorophenyl)pyrazolo[1,5-a]pyrimidine-3-carbonitrile] | 0.565
21 | 0.0021 | 0.002 | – | 2.01 | 0.003 | N#Cc1cccc(-c2nn3ccc(N)nc3c2-c2ccncc2)c1 [Example 1, 3-[5-Amino-3-(4-pyridyl)pyrazolo[1,5-a]pyrimidin-2-yl]benzonitrile] | 0.305
22 | 0.0013 | 0.023 | > 1 | 0.33 | 0.347 | Cc1cc(-c2c(-c3cccc(C#N)c3)nn3ccc(C(=O)N[C@H]4C[C@@](C)(O)C4)nc23)cc(C)n1 [Example 92.24] | –
23 | 0.0002 | 0.071 | 1.04 | 0.34 | 0.102 | Cc1cc(-c2c(-c3cccc(C#N)c3)nn3ccc(C(=O)NC(C)(C)C)nc23)cc(N)n1 [Example 91, 3-(2-Amino-6-methyl-4-pyridyl)-N-tert-butyl-2-(3-cyanophenyl)pyrazolo [1,5-a]pyrimidine-5-carboxamide] | –
24 | 0.0015 | 0.032 | > 1 | 0.14 | 0.428 | Cc1cc(-c2c(-c3cccc(C#N)c3)nn3ccc(C(=O)N[C@H]4CN(C)C[C@H]4O)nc23)cc(C)n1 [Example 92.34] | –
